For series [1], the system named is SW620 tumor organoids. The series is described as follows: Tumor organoid cytotoxicity (CellTiter-Glo 3D).
Series [2] addresses T1, cat-CHD1L ATPase (Homo sapiens, UniProt Q86WJ1).
T1 construct: inferred from Ni-NTA / imidazole purification; made in house; host or cells: E. coli Rosetta 2 (DE3) pLysS; constructs were a gift from Helena Berglund, Karolinska Institute
T1 sequence (Q86WJ1 16-611 limits assumed): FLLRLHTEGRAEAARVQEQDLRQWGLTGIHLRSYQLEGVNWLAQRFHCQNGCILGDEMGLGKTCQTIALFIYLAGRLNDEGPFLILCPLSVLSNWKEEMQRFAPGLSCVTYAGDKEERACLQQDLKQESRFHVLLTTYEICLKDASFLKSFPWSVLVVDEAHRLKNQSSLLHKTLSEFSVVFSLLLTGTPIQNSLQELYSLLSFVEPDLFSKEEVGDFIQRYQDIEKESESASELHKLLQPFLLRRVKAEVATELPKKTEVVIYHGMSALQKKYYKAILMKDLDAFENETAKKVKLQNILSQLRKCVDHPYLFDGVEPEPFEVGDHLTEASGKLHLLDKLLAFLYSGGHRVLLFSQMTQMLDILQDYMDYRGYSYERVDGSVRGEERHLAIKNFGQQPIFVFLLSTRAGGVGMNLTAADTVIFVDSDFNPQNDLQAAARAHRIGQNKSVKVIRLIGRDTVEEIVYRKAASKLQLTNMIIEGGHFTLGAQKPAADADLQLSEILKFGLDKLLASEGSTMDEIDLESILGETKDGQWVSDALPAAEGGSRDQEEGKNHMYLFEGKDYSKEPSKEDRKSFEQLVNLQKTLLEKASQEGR
Kind of series: CHD1L ATPase assay with recombinant catalytic domain (cat-CHD1L). The note with it: for pIC50: Table 6, read-out: cat-CHD1L inhibition IC50; for inhibition at 20 µM: confirmed HTS hits, HTS at 20 μM, read-out: inhibition against cat-CHD1L ATPase; for IC50: units given with the values (nM, μM), read-out: activity in dose response studies against cat-CHD1L ATPase (IC50, FIG. 1A). The format is biochemical. As for the experimental part:
All reactions were carried out using low volume non-binding surface 384-well plates (Corning Inc., Corning N.Y.). cat-CHD1L or fl-CHD1L (100 nM) and 200 nM c-Myc DNA or mononucelosome (Active Motif, Carlsbad, Calif.) were added to a buffer containing 50 mM Tris pH 7.5, 50 mM NaCl, 1 mM DTT, 5% glycerol, and the reaction was initiated by the addition of 10 μM ATP (New England Biolabs, Ipswich, Mass.) to a total volume of 10 μL and incubated at 37° C. for 1 h. ATPase activity was assayed by adding 500 nM of Phosphate Sensor (Life Technologies, Carlsbad, Calif.), containing labeled phosphate-binding protein, specifically labeled with the fluorophore MDCC, and measuring excitation (430 nm) and emission (450 nm) immediately on an EnVision® plate reader (PerkinElmer, Hopkinton, Mass.). An inorganic phosphate standard curve was used to convert the fluorescence to [Pi], and enzyme kinetics were determined using Prism8 (GraphPad Software, San Diego, Calif.).
Assay composition was the same as described above using cat-CHD1L, except that the reaction mixture volume was modified to accommodate addition of drug or DMSO. Using a Janus® liquid handler (PerkinElmer, Hopkinton, Mass.), a selected amount of compounds dissolved in 100% DMSO were mixed with 50 mM Tris pH 7.5, 50 mM NaCl, 1 mM DTT, 5% glycerol buffer to 200 μM in 10% DMSO. […] The negative control used was 1% DMSO and 10 mM EDTA was used as a positive control. Reactions were initiated with the addition of 10 μM ATP and incubated at 37° C. for 1 h. ATPase activity was measured by fluorescence by adding 500 nM Phosphate Sensor. cat-CHD1L was screened against a 20,000-compound diversity set from Life Chemicals (Woodbridge, Conn.) and a Kinase Inhibitor library from Selleck Chemicals (Houston, Tex.).
CHD1L Enzyme ATPase Assay. […] All reactions were carried out using low volume nonbinding surface 384-well plates (Corning Inc., Corning, N.Y.). […] The reaction was initiated by the addition of 10 μmol/L ATP (New England Biolabs, Ipswich, Mass.) to a total volume of 10 μL and incubated at 37° C. for 1 hour. ATPase activity was measured by adding 500 nmol/L of Phosphate Sensor (ThermoFisher, Waltham, Mass.) measuring excitation (430 nm) and emission (450 nm) immediately on an Envision plate reader (PerkinElmer, Waltham, Mass.). Background signal was determined by using all assay components excluding the enzyme.

Series [3] has as its system HCT116 tumor organoids. The series is described as follows: Tumor organoid cytotoxicity (CellTiter-Glo 3D). The note with it: Homo sapiens. The format is cell-based, human. As for the experimental part: Cell based cytotoxicity dose response and combination studies. […] Plates were then incubated for 3 days before treatment.
Cell Line Tumor Organoid Culture.
Tumor Organoid Cytotoxicity.

Where [4] appears, read: Homo sapiens, SW-620, 72 h, read-out: 3 D Cytotoxicity 72 hr IC50 (μM) SW620.
Setting [5] is: HCT-116, 72 h, Table 6, read-out: 3 D Cytotoxicity 72 hr IC50 (μM) HCT116.
Where [6] appears, read: Homo sapiens, SW-620, read-out: Tumor Organoid Cytotoxicity IC50 (μM) SW620.
[7] abbreviates: HCT-116, single agent, Table 4A, read-out: Tumor Organoid Cytotoxicity IC50 (μM) HCT116.

pIC50: −log10 of the molar value. Read-outs that look alike come from different tables or passages of the source.

Regarding `Cc1cc(NCc2ccc(NC(=O)Cc3cc(Br)cs3)cc2)n2nc(N)nc2n1` [Compound 6.54], the IC50 in series [1] (setting [4]) and in series [3] (setting [5]) was more than 40 µM throughout. Also, in series [2], the pIC50 was 5.46.
Regarding `Cc1cc(Nc2ccc(NC(=O)Cn3cc(CC4CC4)c4ccccc43)cc2)nc(N2CCCC2)n1` [Compound 6.26, 2-(3-(cyclopropylmethyl)-1H-indol-1-yl)-N-(4-((6-methyl-2-(pyrrolidin-1-yl)pyrimidin-4-yl)amino)phenyl)acetamide], the 50% inhibitory concentration (IC50) in series [1] (setting [4]) turned out to be 4.7 µM; in series [1] (setting [6]), 5.5 µM.
For `Cc1cc(Nc2ccc(NC(=O)Cc3ccccn3)cc2)nc(N2CCCC2)n1` [Compound 6.42], the pIC50 in series [2] was 4.75. In addition, the IC50 in series [3] (setting [5]) worked out at 20.9 µM.
Turning to `Cc1cc(Nc2ccc(NC(=O)c3cn(C)c4ccccc34)cc2)nc(N2CCCC2)n1` [Compound 6.19, 1-methyl-N-(4-((6-methyl-2-(pyrrolidin-1-yl)pyrimidin-4-yl)amino)phenyl)-1H-indole-3-carboxamide], the half-maximal inhibitory concentration (IC50) in series [1] (setting [4]) is 7.7 µM; in series [1] (setting [6]), 7.7 µM; in series [3] (setting [5]) it was more than 40 µM; in series [3] (setting [7]) it was more than 30 µM.
`COC(=O)C1CCCN1c1nc(C)cc(Nc2ccc(NC(=O)Cc3cccs3)cc2)n1` (stereo not drawn) [Compound 6.34]: in series [1] (setting [4]), the IC50 was more than 20 µM. Besides, in series [2], the negative-log IC50 (pIC50) is 5.52.
Take `Cc1cc(Nc2ccc(NC(=O)CCc3c[nH]c4ccccc34)cc2)nc(N2CCCC2)n1` [Compound 6.6, 3-(1H-indol-3-yl)-N-(4-((6-methyl-2-(pyrrolidin-1-yl)pyrimidin-4-yl)amino)phenyl) propanamide]: the IC50 in series [1] (setting [4]) was more than 40 µM; in series [1] (setting [6]), more than 40 µM; in series [3] (setting [5]), more than 40 µM; in series [3] (setting [7]), more than 30 µM.
Regarding `COc1cc(C)c(C(C)C)cc1S(=O)(=O)NCCN1CCOCC1` [Compound 3], in series [2], the inhibition at 20 µM was more than 50% and the IC50 was 900 to 5000 nM.
Turning to `CCc1ccc2[nH]cc(CC(=O)Nc3ccc(Nc4cc(C)nc(N5CCCC5)n4)cc3)c2c1` [Compound 6.27, 2-(5-ethyl-1H-indol-3-yl)-N-(4-((6-methyl-2-(pyrrolidin-1-yl)pyrimidin-4-yl)amino)phenyl) acetamide], the IC50 worked out at 3 µM in series [1] (setting [4]) and 2.1 µM in series [1] (setting [6]).
Turning to `Cc1cc(Nc2ccc(NC(=O)CC3C(=O)Nc4ccccc43)cc2)nc(N2CCCC2)n1` (stereo not drawn) [Compound 6.30, N-(4-((6-methyl-2-(pyrrolidin-1-yl)pyrimidin-4-yl)amino)phenyl)-2-(2-oxoindolin-3-yl) acetamide], the IC50 in series [1] (setting [4]) stood at 6.1 µM; in series [1] (setting [6]), 6 µM.
For the compound `Cc1cc(Nc2ccc(NC(=O)CCCc3c[nH]c4ccccc34)cc2)nc(N2CCCC2)n1` [Compound 6.7, 4-(1H-indol-3-yl)-N-(4-((6-methyl-2-(pyrrolidin-1-yl)pyrimidin-4-yl)amino)phenyl)butanamide], the IC50 in series [1] (setting [4]) amounted to 13 µM; in series [1] (setting [6]), 12.7 µM; in series [3] (setting [5]), 17.6 µM; in series [3] (setting [7]), 17.6 µM.
`Cc1cc(Nc2ccc(NC(=O)Cc3cn(S(=O)(=O)c4ccc(C(F)(F)F)cc4)c4ccccc34)cc2)nc(N2CCCC2)n1` [Compound 6.29, N-(4-((6-methyl-2-(pyrrolidin-1-yl)pyrimidin-4-yl)amino)phenyl)-2-(1-((4-(trifluoromethyl)phenyl)sulfonyl)-1H-indol-3-yl)acetamide]: the IC50 stood at 5.4 µM in series [1] (setting [4]) and 5.1 µM in series [1] (setting [6]).
On to `Cc1ccc(-c2ccc(S(=O)(=O)NCCN3CCOCC3)cc2)cc1C` [Compound 2], for which, in series [2], the inhibition at 20 µM is more than 50% and the IC50 was in the range of 900 to 5000 nM.
`O=S(=O)(NCCN1CCOCC1)c1ccc(C2CCCCC2)cc1` [Compound 1]: in series [2], the inhibition at 20 µM was more than 50% and the IC50 lay within 900 to 5000 nM.
For the compound `Cc1cc(Nc2ccc(NC(=O)Cn3ccc4ccccc43)cc2)nc(N2CCCC2)n1` [Compound 6.24, 2-(1H-indol-1-yl)-N-(4-((6-methyl-2-(pyrrolidin-1-yl)pyrimidin-4-yl)amino)phenyl)acetamide], the values for the IC50 in series [1] (setting [4]) and in series [1] (setting [6]) were 3 µM and 2.7 µM, respectively.
Consider `COc1ccc2[nH]cc(CC(=O)Nc3ccc(Nc4cc(C)nc(N5CCCC5)n4)cc3)c2c1` [Compound 6.22, 2-(5-methoxy-1H-indol-3-yl)-N-(4-((6-methyl-2-(pyrrolidin-1-yl)pyrimidin-4-yl)amino)phenyl) acetamide], for which the IC50 in series [1] (read-out: 3 D Cytotoxicity 72 hr IC50 (μM) SW620, Table 6) came out at 11.3 µM; in series [1] (read-out: Tumor Organoid Cytotoxicity IC50 (μM) SW620, single agent, Table 4A, updated experimental, rounded to one decimal), 12.6 µM.
With `Cc1cc(Nc2ccc(NC(=O)Cc3c[nH]c4ccc(O)cc34)cc2)nc(N2CCCC2)n1` [Compound 6.25, 2-(5-hydroxy-1H-indol-3-yl)-N-(4-((6-methyl-2-(pyrrolidin-1-yl)pyrimidin-4-yl)amino)phenyl) acetamide], the IC50 in series [1] (setting [4]) stood at 17.6 µM; in series [1] (setting [6]), 19.7 µM.
Regarding `COC(=O)C1CCCN1c1nc(C)cc(Nc2ccc(NC(=O)Cc3cc(Br)cs3)cc2)n1` (stereo not drawn) [Compound 6.35], in series [1] (setting [4]), the IC50 was 8.6 µM. Besides, the pIC50 in series [1] (Homo sapiens, SW-620, read-out: IC50 of cytotoxicity in SW620 cells) was more than 5.00; in series [2] it was 5.74. Further, the “CHD1L enzyme inhibition, in words” value in series [2] (recombinant cat-CHD1L) was “good enzyme inhibition”.
In the case of `Cc1cc(Nc2ccc(NC(=O)Cc3c[nH]c4ncccc34)cc2)nc(N2CCCC2)n1` [Compound 6.20, N-(4-((6-methyl-2-(pyrrolidin-1-yl)pyrimidin-4-yl)amino)phenyl)-2-(1H-pyrrolo[2,3-b]pyridin-3-yl)acetamide], the IC50 came to 2.2 µM in series [1] (setting [4]) and 2.1 µM in series [1] (setting [6]).
For `Cc1cc(Nc2ccc(NC(=O)Cc3c[nH]c4ccc(Br)cc34)cc2)nc(N2CCCC2)n1` [Compound 6.23, 2-(5-bromo-1H-indol-3-yl)-N-(4-((6-methyl-2-(pyrrolidin-1-yl)pyrimidin-4-yl)amino)phenyl) acetamide], in series [1] (setting [6]), the IC50 was found to be 5.7 µM.
As to `Cc1cc(Nc2ccc(NC(=O)/C=C/c3c[nH]c4ccccc34)cc2)nc(N2CCCC2)n1` [Compound 6.8, (E)-3-(1H-indol-3-yl)-N-(4-((6-methyl-2-(pyrrolidin-1-yl)pyrimidin-4-yl)amino)phenyl)-acrylamide], the IC50 in series [1] (setting [4]) was 4.3 µM; in series [1] (setting [6]) it was 3.6 µM; in series [3] (setting [5]), 6.8 µM; in series [3] (setting [7]), 6.85 µM.
As to `Cc1cc(Nc2ccc(NC(=O)Cc3cc(Br)cs3)cc2)nc(N2CCCC2C(=O)O)n1` (stereo not drawn) [Compound 6.36], the IC50 in series [1] (setting [4]) is more than 20 µM. Moreover, in series [2], the pIC50 is less than 4.70.
With `Cc1cc(Nc2ccc(NC(=O)Cc3cccnc3)cc2)nc(N2CCCC2)n1` [Compound 6.43], the pIC50 in series [2] is 4.99. Moreover, in series [3] (setting [5]), the IC50 amounted to 19.1 µM.

Source of the values: US20230103444A1 (The Regents of the University of Colorado, a Body Corporate, priority 2020, published 2023).
